pIC50: −log10 of the molar value.
The molecules below were run against PDE10 (Homo sapiens, UniProt Q9Y233) (assay: PDE10 inhibition, Scintillation Proximity Assay (SPA)). Details: substrate at 1/3 Km, IC50 approximates Ki.
Sequence of PDE10 (Q9Y233 whole entry): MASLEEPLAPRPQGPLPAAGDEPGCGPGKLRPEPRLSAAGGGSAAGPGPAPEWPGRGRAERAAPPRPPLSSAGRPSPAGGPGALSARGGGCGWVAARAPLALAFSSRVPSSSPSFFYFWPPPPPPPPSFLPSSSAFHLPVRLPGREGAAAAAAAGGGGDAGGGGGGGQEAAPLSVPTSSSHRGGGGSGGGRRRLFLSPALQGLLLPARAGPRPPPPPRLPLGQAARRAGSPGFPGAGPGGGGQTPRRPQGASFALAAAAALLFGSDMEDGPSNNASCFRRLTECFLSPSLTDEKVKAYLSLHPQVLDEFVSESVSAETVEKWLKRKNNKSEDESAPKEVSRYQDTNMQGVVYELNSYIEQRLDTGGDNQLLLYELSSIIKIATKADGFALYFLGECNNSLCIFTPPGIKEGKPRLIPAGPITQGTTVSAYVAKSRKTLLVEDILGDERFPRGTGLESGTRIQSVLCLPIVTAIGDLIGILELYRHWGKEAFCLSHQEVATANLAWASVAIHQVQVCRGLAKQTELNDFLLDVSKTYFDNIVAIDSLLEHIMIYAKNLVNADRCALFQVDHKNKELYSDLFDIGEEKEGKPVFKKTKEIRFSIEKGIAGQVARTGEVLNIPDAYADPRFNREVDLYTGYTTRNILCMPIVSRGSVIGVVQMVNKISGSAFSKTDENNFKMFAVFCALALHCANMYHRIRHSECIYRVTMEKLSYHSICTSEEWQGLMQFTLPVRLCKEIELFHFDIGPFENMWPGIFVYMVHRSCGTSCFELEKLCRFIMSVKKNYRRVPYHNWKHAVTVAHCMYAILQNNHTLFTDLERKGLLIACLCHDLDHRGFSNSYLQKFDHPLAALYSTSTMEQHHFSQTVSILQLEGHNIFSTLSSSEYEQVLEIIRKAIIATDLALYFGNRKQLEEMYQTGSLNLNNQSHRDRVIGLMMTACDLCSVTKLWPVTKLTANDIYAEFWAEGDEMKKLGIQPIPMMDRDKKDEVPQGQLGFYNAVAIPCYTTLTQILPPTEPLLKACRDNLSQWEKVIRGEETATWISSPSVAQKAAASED
Format: biochemical
Experimental: Assay methods are available to screen a substance for inhibition of cyclic nuticleotide hydrolysis by the PDE10 and the PDEs from other gene families. The cyclic nucleotide substrate concentration used in the assay is ⅓ of the Km concentration, allowing for comparisons of IC50 values across the different enzymes. PDE activity is measured using a Scintillation Proximity Assay (SPA)-based method as previously described (Fawcett et al., 2000), The effect of PDE inhibitors is determined by assaying a fixed amount of enzyme (PDEs 1-11) in the presence of varying substance concentrations and low substrate, such that the IC50 approximates the Ki (cGMP or cAMP in a 3:1 ratio unlabelled to [^3H]-labeled at a concentration of ⅓ Km).). The final assay volume is made up to 100 μl with assay buffer [20 mM Tris-HCl pH 7.4, 5 mM MgCl2, 1 mg/ml bovine serum albumin]. Reactions are initiated with enzyme, incubated for 30-60 min at 30° C. to give <30% substrate turnover and terminated with 50 μl yttrium silicate SPA beads (Amersham) (containing 3 mM of the respective unlabelled cyclic nucleotide for PDEs 9 and 11). Plates are re-sealed and shaken for 20 min, after which the beads were allowed to settle for 30 minutes in the dark and then counted on a TopCount plate reader (Packard, Meriden, Conn.).
A pIC50 of 7.10 was found for `Cn1c(COc2ccc(-c3n[nH]cc3-c3ccncc3)cc2)nc2ccccc21` [Example 1, 1-Methyl-2-[4-(4-pyridin-4-yl-1H-pyrazol-3-yl)-phenoxymethyl]-1H-benzoimidazole] in this work.
A pIC50 of 8.86 was found for `CCn1cc(-c2ccncc2)c(-c2ccc(OCc3nc4ccccc4n3C)cc2)n1` [Example 2, 2-[4-(1-Ethyl-4-pyridin-4-yl-1-H-pyrazol-3-yl)-phenoxylmethyl]-1-methyl-1-1H-benzoimidazole] in this work.
A pIC50 of 8.59 was found for `C[C@@H](O)Cn1cc(-c2ccncc2)c(-c2ccc(OCc3nc4ccccc4n3C)cc2)n1` [Example 3, 1-{3-[4(1-Methyl-1H-benzoimidazol-2-ylmethoxy)-phenyl]-4-pyridin-4-yl-pyrazol-1-yl)-propan-2-ol] in this work.
A pIC50 of 8.31 was found for `Cn1c(COc2ccc(-c3oncc3-c3ccncc3)cc2)nc2ccccc21` [Example 4, 1-Methyl-2-[4-(4-pyridin-4-yl-isoxazol-5-yl)-phenoxymethyl]-1-H-benzoimidazole] in this work.
A pIC50 of 9.25 was found for `Cn1cc(-c2ccncc2)c(-c2ccc(OCc3nc4ccccc4n3C)cc2)n1` [Example 5, 1-Methyl-2-[4-(1-methyl-4-pyridin-4-yl-1H-pyrazol-3-yl)-phenoxymethyl]-1-H-benzoimidazole] in this work.
A pIC50 of 8.74 was found for `Cn1ncc(-c2ccncc2)c1-c1ccc(OCc2nc3ccccc3n2C)cc1` [Example 6, 1-Methyl-2-[4-(2 methyl-4-pyridin-4-yl-2H-pryazol-3-yl)-phenoxymethyl]-1H-benzoimidazole] in this work.
A pIC50 of 9.01 was found for `Cn1cc(-c2ccncc2)c(-c2ccc(OCc3nc4ccccc4n3CF)cc2)n1` [Example 7, 1-Fluoromethyl-2-[4-(1-methyl-4-pyridin-4-yl-1H-pyrazol-3-yl)-phenoxymethyl]-1H-benzoimidazole] in this work.
A pIC50 of 8.05 was found for `CC(C)n1c(COc2ccc(-c3nn(C)cc3-c3ccncc3)cc2)nc2ccccc21` [Example 8, 1-Isopropyl-2-[4-(1-methyl-4-pyridin-4-yl-1H-pyrazol-3-yl)-phenoxymethyl]-1H-benzoimidazole] in this work.
A pIC50 of 9.16 was found for `Cn1cc(-c2ccncc2)c(-c2ccc(OCc3nc4ccccc4n3C3CC3)cc2)n1` [Example 9, 1-Cyclopropyl-2-[4-(1-methyl-4-pyridin-4-yl-1H-pyrazol-3-yl)-phenoxymethyl]-1-H-benzoimidazole] in this work.
A pIC50 of 8.80 was found for `COCCn1c(COc2ccc(-c3nn(C)cc3-c3ccncc3)cc2)nc2ccccc21` [Example 10, 1-(2-Methoxy-ethyl)-2[4-(1-methyl-4-pyridin-4-yl-1H-pyrazol-3-yl)-phenoxymethyl]-1H-benzoimidazole] in this work.
A pIC50 of 9.28 was found for `Cn1cc(-c2ccncc2)c(-c2ccc(OCc3cn4ccccc4n3)cc2)n1` [Example 11, 2-[4-(1-Methyl-4-pyridin-4yl-1H-pyrazol-3-yl)-phenoxymethyl]-imidazo[1,2-a]pyridine] in this work.
A pIC50 of 9.28 was found for `Cn1ncc(-c2ccncc2)c1-c1ccc(OCc2cn3ccccc3n2)cc1` [Example 12] in this work.
A pIC50 of 8.94 was found for `Cn1cc(-c2ccncc2)c(-c2ccc(OCc3nc4ccccn4n3)cc2)n1` [Example 13, 2-[4-(1-Methyl-4-pyridin-4-yl-1H-pyrazol-3-yl)-phenoxymethyl]-[1,2,4]triazolo[1,5-a]-pyridine] in this work.
A pIC50 of 9.25 was found for `FC(F)(F)Cn1cc(-c2ccncc2)c(-c2ccc(OCc3nc4ccccn4n3)cc2)n1` [Example 14, 2-{4-[4-Pyridin-4-yl-1-(2,2,2-trifluoro-ethyl)-1-H-pyrazol-3-yl]-phenoxymethyl}-[1,2,4]triazolo[1,5-a]pyridine] in this work.
A pIC50 of 9.41 was found for `FC(F)(F)Cn1cc(-c2ccncc2)c(-c2ccc(OCc3cn4ccccc4n3)cc2)n1` [Example 15] in this work.
A pIC50 of 9.68 was found for `Cn1c(COc2ccc(-c3nn(CC(F)(F)F)cc3-c3ccncc3)cc2)nc2ccccc21` [Example 16, 1-Methyl-2-{4-[4-pyridin-4-yl-1-(2,2,2-trifluoro-ethyl)-1H-pyrazol-3yl]-phenoxymethyl}-1H-benzoimidazole] in this work.
A pIC50 of 9.12 was found for `FCn1c(COc2ccc(-c3nn(CC(F)(F)F)cc3-c3ccncc3)cc2)nc2ccccc21` [Example 17, 1-Fluoromethyl-2-{4-[4-pyridin-4-yl-1-(2.2.2-trifluoro-ethyl)-1-H-pyrazol-3-yl]-phenoxymethyl}-1H-benzoimidazole] in this work.
A pIC50 of 8.03 was found for `Cn1cc(-c2ccncc2)c(-c2ccc(OCc3nc4ncccc4n3C)cc2)n1` [Example 18] in this work.
A pIC50 of 6.88 was found for `Cn1cc(-c2ccncc2)c(-c2ccc(OCc3nc4cnccc4n3C)cc2)n1` [Example 19, 1-Methyl-2-[4-(1-methyl-4-pyridin-4-yl-1H-pyrazol-3-yl)-phenoxymethyl]-1-H-imidazo[4,5-c]pyridine] in this work.
A pIC50 of 7.78 was found for `Cn1cc(-c2ccncc2)c(-c2ccc(OCc3nc4cc(F)c(F)cc4n3C)cc2)n1` [Example 20, 5,6-Difluoro-1-methyl-2-[4-(1-methyl-4-pyridin-4-yl-1H-pyrazol-3-yl)-phenoxymethyl]-1H-benzoimidazole] in this work.
A pIC50 of 9.05 was found for `Cn1cc(-c2ccncc2)c(-c2ccc(OCc3nc4ccccc4s3)cc2)n1` [Example 21, 2-[4-(1-Methyl-4-pyridin-4-yl-1H-pyrazol-3-yl)-phenoxymethyl]-benzothiazole] in this work.
A pIC50 of 8.83 was found for `FC(F)(F)Cn1cc(-c2ccncc2)c(-c2ccc(OCc3nc4ccccc4s3)cc2)n1` [Example 22, 2-{4-[4-Pyridin-4-yl-1-(2,2 2-trifluoro-ethyl)-1H-pyrazol-3-yl]-phenoxymethyl}-benzothiazole] in this work.
A pIC50 of 8.51 was found for `Cn1cc(-c2ccncc2)c(-c2ccc(OCc3nc4cccc5c4n3CCC5)cc2)n1` [Example 23, 2-[4-(1-Methyl-4-pyridin-4-yl-1H-pyrazol-3-yl)-phenoxymethyl]-5,6-dihydro-4H-imidazo[4,5,1-ij]quinoline] in this work.
A pIC50 of 8.85 was found for `Cc1c(COc2ccc(-c3nn(C)cc3-c3ccncc3)cc2)nc2ccccn12` [Example 24, 3-Methyl-2-[4-(1-methyl-4-pyridin-4-yl-1H-pyrazol-3-yl)-phenoxymethyl]-imidazo[1,2-a]pyridine] in this work.
A pIC50 of 8.00 was found for `Cn1cc(-c2ccncc2)c(-c2ccc(OCc3nc4ccccc4n3CC(F)(F)F)cc2)n1` [Example 25, 2-[4-(1-Methyl-4-pyridin-4-yl-1H-pyrazol-3-yl)-phenoxymethyl]-1-(2,2,2trifluoro-ethyl)-1H-benzoimidazole] in this work.
A pIC50 of 8.52 was found for `Cn1c(COc2ccc(-n3nccc3-c3ccncc3)cc2)nc2ccccc21` [Example 26, 1-Methyl-2-[4-(5-pyridin-4-yl-pyrazol-1-yl)-phenoxymethyl]-1H-benzoimidazole] in this work.
A pIC50 of 7.79 was found for `Cn1cc(-c2ccncc2)c(-c2ccc(CCc3nc4ccccc4n3C)cc2)n1` [Example 27, 1-Methyl-2{2-[4-(1methyl-4-pyridin-4-yl-1H-pyrazol-3-yl)-phenyl]-ethyl}-1H-benzoimidazole] in this work.
A pIC50 of 7.33 was found for `Cn1c(COc2ccc(-c3nncn3-c3ccncc3)cc2)nc2ccccc21` [Example 28, 1-Methyl-2[4-(4-pyridin-4-yl-4H-[1,2,4]triazol-3-yl)-phenoxymethyl]-1H-benzoimidazole] in this work.
A pIC50 of 7.92 was found for `Cn1cc(-c2ccncc2)c(-c2ccc(OCc3cn4ccsc4n3)cc2)n1` [Example 32, 6-[4-(1-Methyl-4-pyridin-4-yl-1H-pyrazol-3-yl)-phenoxymethyl]-imidazo[2,1-b]thiazole] in this work.
A pIC50 of 7.54 was found for `Cn1c(COc2ccc(-n3ccnc3-c3ccncc3)cc2)nc2ccccc21` [Example 37, 2-((4-(2-(pyridin-4-yl)-1H-imidazol-1-yl)phenoxy)methyl)-1-methyl-1H-benzo[d]imidazole] in this work.
A pIC50 of 8.05 was found for `Oc1ccc(-n2ccnc2-c2ccncc2)cc1` [Preparation 37, 4-(2-(pyridin-4-yl)-1H-imidazol-1-yl)phenol] in this work.
